Literature values as cited in patent US4344438A, “Optical sensor of plasma constituents” (The United States of America as represented by the …, priority 1980, dated 1982).

Biological target: Concanavalin-A (Con-A)
Settings: from So and Goldstein, Biochem., Biophys. Acta 165, 398 (1968); read-out: Binding constant K of sugar to Concanavalin-A

SMILES | Kd [µM]
OC[C@H]1O[C@H](OC[C@H]2OC(O)[C@H](O)[C@@H](O)[C@@H]2O)[C@H](O)[C@@H](O)[C@@H]1O (some centres unmarked) [Isomaltose] | 180
O=[N+]([O-])c1ccc(O[C@H]2O[C@H](CO)[C@@H](O)[C@H](O)[C@@H]2O)cc1 [p-nitrophenol-α-D mannopyranoside] | 29.4
OC[C@H]1O[C@@](CO)(O[C@H]2O[C@H](CO)[C@@H](O)[C@H](O)[C@H]2O)[C@@H](O)[C@@H]1O [Sucrose] | 1900
O=C(CO)[C@@H](O)[C@H](O)[C@H](O)CO [Fructose] | 730
OC[C@H]1O[C@H](O[C@H]2[C@H](O)[C@@H](O)C(O)O[C@@H]2CO)[C@H](O)[C@@H](O)[C@@H]1O (mixture of isomers) [Maltose] | 350
